{"source": "patent US6071738A", "about": "“Conversion of organosulfur compounds to oxyorganosulfur compounds for desulfurization of fossil fuels” (Energy BioSystems Corporation, priority 1997, dated 2000)", "key": {"[1]": {"test": "Solubility of 2-(2-hydroxyphenyl)benzenesulfinic acid and DBTSi in liquid hydrocarbons", "assay_type": "physicochemical", "source_text": "Solubility of 2-(2-hydroxyphenyl)benzenesulfinic acid and DBTSi in liquid hydrocarbons\nThe solubilities of 2-(2-hydroxyphenyl)benzenesulfinic acid and DBTSi in liquid hydrocarbons such as gas-oil or vacuum-gas-oil in an important parameter in process design as such refinery streams represent ultimate disposal sites for HPBS."}, "[2]": {"test": "Titration of HPBS with hydrochloric acid or sulfuric acid (acid requirements, pKa, precipitation)", "assay_type": "physicochemical", "protocol": "Acid requirements for the precipitation of 2-(2-hydroxyphenyl)benzenesulfinic acid were determined via titration with hydrochloric acid or sulfuric acid for solutions prepared from synthetic HPBS or HPBS derived from the biocatalytic oxidation of DBT. The titrations were conducted using standard methods.\nFIG. 2 presents titration curves from 3 experiments. In experiment 1, a 110 mM solution of HPBS at pH 13 was treated with aqueous HCl. The HPBS phenolic group was titrated first, with a pKa of about 10.5. Precipitation of solid 2-(2-hydroxyphenyl)benzenesulfinic acid began at about pH 2, as the sulfinate group was protonated.\nIn experiment 2, a 110 mM HPBS solution equilibrated with a middle distillate (or diesel fuel) at 30° C. and pH 6.6 was titrated with HCl. The middle distillate was added to determine if the presence of middle distillate components have any effect on the protonation of HPBS.\nIn experiment 3, a 75 mM solution of HPBS prepared via the biocatalytic oxidation of DBT was titrated with sulfuric acid."}, "[3]": {"test": "Precipitation of 2-(2-hydroxyphenyl)benzenesulfinic acid from acidified HPBS solution; supernatant concentration by HPLC and redissolution", "assay_type": "physicochemical", "protocol": "The pH of a concentrated (>50 mM) HPBS solution was adjusted to 1.2 at ambient temperature with concentrated sulfuric acid. An amorphous white precipitate formed rapidly and the supernatant HPBS concentration, as determined by HPLC, dropped to the range of 5-8 μM."}, "[4]": {"conditions": "comparison value for benzenesulfinic acid; cited from earlier work"}}, "note": "Where two headings read alike, the source gives them in different places.", "data": [{"smiles": "O=S(O)c1ccccc1-c1ccccc1O", "note": "[2-(2-hydroxyphenyl)benzenesulfinic acid]", "values": [{"measurement": "solubility in TMD", "setting": "[1]; ambient temperature, TMD, x-ray fluorescence detection", "value": "below the limits of detection"}, {"measurement": "solubility in hexadecane", "setting": "[1]; ambient temperature, hexadecane, x-ray fluorescence detection", "value": "below the limits of detection"}, {"measurement": "solubility in toluene", "setting": "[1]; ambient temperature, toluene, x-ray fluorescence detection", "value": "below the limits of detection"}, {"measurement": "solubility in gas-oil", "setting": "[1]; gas-oil, 50° C.", "value": "no detectable solubility"}, {"measurement": "solubility in middle distillate", "setting": "[1]; middle distillate, 50° C.", "value": "no detectable solubility"}, {"measurement": "pH at which precipitation of solid began", "setting": "[2]; 110 mM HPBS titrated with aqueous HCl", "value": "~2"}, {"measurement": "solubility of precipitate in organic solvents, such as toluene", "setting": "[3]; organic solvents, such as toluene", "value": "only sparingly soluble"}, {"measurement": "dissolution of precipitate in water", "setting": "[3]; water at neutral pH", "value": "dissolved rapidly"}]}, {"smiles": "O=S1Oc2ccccc2-c2ccccc21", "note": "(centres unmarked) [DBTSi, dibenzothiophene sultine]", "values": [{"measurement": "solubility in gas-oil", "setting": "[1]", "value": "ca. 1.4%"}, {"measurement": "solubility in hexadecane", "setting": "[1]", "value": 0.33, "unit": "% by weight"}, {"measurement": "solubility in liquid hydrocarbons, in words", "setting": "[1]", "value": "substantially more soluble in liquid hydrocarbons"}, {"measurement": "solubility in middle distillate", "setting": "[1]", "value": "ca. 1%"}, {"measurement": "solubility in vacuum gas oil", "setting": "[1]", "value": 4.3, "unit": "%"}, {"measurement": "temperature dependence of solubility in the hydrocarbon", "setting": "[1]", "value": "increased with increasing temperature"}]}, {"smiles": "O=S(O)c1ccccc1-c1ccccc1O", "note": "[HPBS, 2-(2'-hydroxyphenyl)benzenesulfinate]", "values": [{"measurement": "pKa", "setting": "[2]; 110 mM HPBS at pH 13 titrated with aqueous HCl, read-out: pKa of phenolic group", "value": "~10.5"}, {"measurement": "solubility", "setting": "[3]; water, pH 1.2, ambient temperature, concentrated (>50 mM) HPBS, sulfuric acid, HPLC, read-out: supernatant HPBS concentration after precipitation", "value": "5 to 8", "unit": "µM"}]}, {"smiles": "O=S(O)c1ccccc1", "note": "[benzenesulfinic acid]", "values": [{"measurement": "pKa", "setting": "[4]", "value": 1.2}]}]}
